Paper PMC10388305, “Synthesis and Evaluation of a Monomethyl Auristatin E—Integrin αvβ6 Binding Peptide–Drug Conjugate for Tumor Targeted Drug Delivery” (Journal of Medicinal Chemistry, 2023)

What was measured:
Format in all cases: cell-based
[1] = test system: MIA PaCa-2 (−) cells; assay: WST-1 cell viability assay, MIA PaCa-2; settings: MIA PaCa-2 (−)
Protocol: (§1) Peptides NH2-2 and [^natCu]2 were not toxic to any cells (Figure 3, gray and black, respectively).
(§2) Cell viability was measured after treatment with either NH2-2, [^natCu]2, MMAE (free, non-targeted drug), NH2-PDC-1, or [^natCu]PDC-1 in DX3puroβ6 (+) and DX3puro (−) cells at variable concentrations up to 5 nM, and in BxPC-3 (+) and MIA PaCa-2 (−) cells at variable concentrations up to 250 nM, or with MMAE at concentrations up to 10 nM. Cells were seeded in a 96 well plate at a density of 6000 cells/well for DX3puroβ6 and DX3puro, and at a density of 10,000 cells/well for BxPC-3 and MIA PaCa-2. DMEM media was used for all cells except for BxPC-3 (RPMI 1640 media). Cells (n = 6–8 wells/cell type/compound) were treated with different concentrations of NH2-2, [^natCu]2, MMAE, NH2-PDC-1, or [^natCu]PDC-1 dissolved in the respective media, as well as their respective media (no treatment) for 48 h (37 °C, 5% CO2), after which the media was removed; cells were washed twice with media (200 μL) and re-incubated in media (37 °C, 5% CO2) for 24 h. The media was then removed and the WST-1 reagent was added to each well, and the cells were incubated for 2 h at 37 °C. The 96 well plates were read at 450 nm by a Multiscan Ascent microplate reader. The percent cell viability was normalized to untreated cells (set as 100% viability) for each cell line.

[2] = test system: MIA PaCa-2 (−) cells; assay: Caspase-3/7 activity assay (ApoTox-Glo), MIA PaCa-2; settings: 250 nM (MMAE 10 nM, staurosporine 100 nM), 24, 48, 72 h
Protocol: (§3) Caspase-3/7 activity was analyzed using an ApoTox-Glo Triplex Assay kit. Cells were seeded in a 96 well plate at the same density and using the same respective media as described for the WST-1 assay and incubated overnight (37 °C, 5% CO2). DX3puroβ6 and DX3puro cells were treated with 1 nM of MMAE (free, non-targeted drug) or 0.625 nM of the other compounds: NH2-2, [^natCu]2, NH2-PDC-1, or [^natCu]PDC-1. BxPC-3 and MIA PaCa-2 cells were treated with 10 nM of MMAE or 250 nM of the other compounds: NH2-2, [^natCu]2, NH2-PDC-1, or [^natCu]PDC-1. All cells were treated with 100 nM of staurosporine as a positive control.[24] Untreated cells (media) were used as a measure of endogenous caspase-3/7 activity (normalized to 1). Cells were treated (n = 4/cell line/compound/time) for 24, 48, or 72 h (37 °C, 5% CO2) prior to washing. After treatment, the media was removed, cells were washed, and Caspase-Glo 3/7 reagent was added, and incubated for 1 h at room temperature. Caspase-3/7 activity was analyzed by measuring luminescence with a Fluoroskan FL microplate reader according to the manufacturer’s protocol.

[3] = test system: DX3puro (−) cells; assay: WST-1 cell viability assay, DX3puro; settings: up to 5 nM
Protocol: as §1, §2

[4] = test system: BxPC-3 (+) cells; assay: WST-1 cell viability assay, BxPC-3
Protocol: as §1, §2

[5] = test system: DX3puro (−) cells; assay: Caspase-3/7 activity assay (ApoTox-Glo), DX3puro; settings: 0.625 nM (MMAE 1 nM, staurosporine 100 nM), 24, 48, 72 h
Protocol: as §3

[6] = test system: DX3puroβ6 (+) cells; assay: WST-1 cell viability assay, DX3puroβ6
Protocol: as §1, §2

[7] = test system: BxPC-3 (+) cells; assay: Caspase-3/7 activity assay (ApoTox-Glo), BxPC-3; settings: for Caspase-3/7 activity (in words): 250 nM (MMAE 10 nM, staurosporine 100 nM), 24, 48, 72 h
Protocol: as §3

[8] = test system: DX3puroβ6 (+) cells; assay: Caspase-3/7 activity assay (ApoTox-Glo), DX3puroβ6; settings: for Caspase-3/7 activity (in words): DX3puroβ6 (+), 0.625 nM (MMAE 1 nM, staurosporine 100 nM), 24, 48, 72 h
Protocol: as §3

[9] = 48 h treatment + 24 h media, mean ± SD

Compound	EC50 ([1]; 48 h treatment + 24 h media, up to 250 nM (MMAE up to 10 nM), mean ± SD) [nM]	Caspase-3/7 activity (in words) [2]	EC50 [3, 9] [nM]	EC50 [4, 9] [nM]	Caspase-3/7 activity (in words) [5]	EC50 ([6]; DX3puroβ6 (+), 48 h treatment + 24 h media, mean ± SD) [nM]	Fold more cytotoxic toward DX3puroβ6 (+) than DX3puro (−) cells ([6]; WST-1 EC50 ratio) [fold]	Caspase-3/7 activity, fold increase ([7]; 250 nM, 48 h, untreated = 1, n = 4) [fold]	Caspase-3/7 activity, times higher ([8]; DX3puroβ6, 0.625 nM, 24 h, untreated = 1, n = 4) [times]	Caspase-3/7 activity (in words) [7]	Caspase-3/7 activity (in words) [8]	Cytotoxicity (in words), WST-1 ([1]; up to 250 nM)	Cytotoxicity (in words), WST-1 [3]	Cytotoxicity (in words), WST-1 ([4]; up to 250 nM)	Cytotoxicity (in words), WST-1 ([6]; DX3puroβ6 (+), up to 5 nM)
CC[C@H](C)[C@@H]([C@@H](CC(=O)N1CCC[C@H]1[C@H](OC)[C@@H](C)C(=O)N[C@H](C)[C@@H](O)c1ccccc1)OC)N(C)C(=O)[C@@H](NC(=O)[C@H](C(C)C)N(C)C(=O)OCc1ccc(NC(=O)[C@H](CCCNC(N)=O)NC(=O)[C@@H](NC(=O)CCOCCOCCNC(=O)CCN2C(=O)CC(SC[C@H](N)C(=O)NCCOCCOCCOCCOCCOCCOCCOCCOCCOCCOCCOCCOCCOCCOCCOCCOCCOCCOCCOCCOCCOCCOCCOCCOCCOCCOCCOCCOCCC(=O)N[C@@H](CC(N)=O)C(=O)N[C@@H](C)C(=O)N[C@H](C(=O)N3CCC[C@H]3C(=O)N[C@@H](CC(N)=O)C(=O)N[C@@H](CC(C)C)C(=O)N[C@@H](CCCNC(=N)N)C(=O)NCC(=O)N[C@@H](CC(=O)O)C(=O)N[C@@H](CC(C)C)C(=O)N[C@@H](CCC(N)=O)C(=O)N[C@H](C(=O)N[C@@H](CC(C)C)C(=O)N[C@@H](C)C(=O)N[C@@H](CCC(N)=O)C(=O)N[C@@H](CCCNC(=N)N)C(=O)N[C@H](C(=O)N[C@@H](C)C(=O)N[C@@H](CCCNC(=N)N)C(=O)N[C@H](C(=O)NCCOCCOCCOCCOCCOCCOCCOCCOCCOCCOCCOCCOCCOCCOCCOCCOCCOCCOCCOCCOCCOCCOCCOCCOCCOCCOCCOCCOCCC(N)=O)[C@@H](C)O)C(C)C)C(C)C)C(C)C)C2=O)C(C)C)cc1)C(C)C (stereo partly drawn) [NH2-PDC-1]	> 250	no significant increase	> 5	222 ± 114	no observed change	0.159 ± 0.014	> 31	> 3	> 5						
CN[C@@H]1C[C@H]2O[C@@](C)([C@@H]1OC)n1c3ccccc3c3c4c(c5c6ccccc6n2c5c31)C(=O)NC4 [staurosporine, reference compound]		increased caspase-3/7 activity			increased caspase-3/7 activity					increased caspase-3/7 activity	increased caspase-3/7 activity				
NH2-C-αvβ6-BP [NH2-2]		no effect on caspase-3/7 activity			no effect on caspase-3/7 activity					no effect on caspase-3/7 activity	no effect on caspase-3/7 activity	not toxic	not toxic	not toxic	not toxic
